Assay results from publication PMC5218480 (PLoS ONE, 2017).

Tested on: MV-4-11 cells
Experiment: Gene expression microarray analysis (Affymetrix PrimeView) and GSEA
Format: cell-based, human
Design: RFU PODN (11730768_x_at) / Fold change /veh PODN (11730768_x_at) / RFU LINC00158 (11744669_a_at) / Fold change /veh LINC00158 (11744669_a_at) / RFU DUSP10 (11751237_a_at) / Fold change /veh DUSP10 (11751237_a_at) / RFU ID3 (11757404_x_at) / Fold change /veh ID3 (11757404_x_at) / RFU PLEKHG5 (11737974_s_at) / Fold change /veh PLEKHG5 (11737974_s_at) / RFU LRRC4B (11730491_at) / Fold change /veh LRRC4B (11730491_at) / RFU GIMAP4 (11747438_a_at) / Fold change /veh GIMAP4 (11747438_a_at) / RFU KRT8 (11758183_x_at) / Fold change /veh KRT8 (11758183_x_at) / RFU CNN1 (11734310_a_at) / Fold change /veh CNN1 (11734310_a_at) / RFU VPS37D (11726825_at) / Fold change /veh VPS37D (11726825_at) / RFU C10orf10 (11716522_x_at) / Fold change /veh C10orf10 (11716522_x_at) / RFU KIR2DL2 /// KIR2DL4 /// KIR2DL5A /// KIR2DL5B /// KIR2DS1 /// KIR2DS2 /// KIR2DS3 /// KIR2DS4 /// KIR3DL3 /// KIR3DL3 /// KIR3DS1 (11738374_at) / Fold change /veh KIR2DL2 /// KIR2DL4 /// KIR2DL5A /// KIR2DL5B /// KIR2DS1 /// KIR2DS2 /// KIR2DS3 /// KIR2DS4 /// KIR3DL3 /// KIR3DL3 /// KIR3DS1 (11738374_at) / RFU C1QL1 (11718748_at) / Fold change /veh C1QL1 (11718748_at) / RFU TMPRSS4 (11747572_a_at) / Fold change /veh TMPRSS4 (11747572_a_at) / RFU HAMP (11756126_x_at) / Fold change /veh HAMP (11756126_x_at) / RFU RNFT2 (11725882_a_at) / Fold change /veh RNFT2 (11725882_a_at) / RFU NR4A2 (11747474_a_at) / Fold change /veh NR4A2 (11747474_a_at) / RFU ABCC12 (11746883_a_at) / Fold change /veh ABCC12 (11746883_a_at) / RFU TMEM136 (11760407_x_at) / Fold change /veh TMEM136 (11760407_x_at) / RFU CLDN22 /// WWC2 (11732394_at) / Fold change /veh CLDN22 /// WWC2 (11732394_at) / RFU HLA-DPB1 (11760878_x_at) / Fold change /veh HLA-DPB1 (11760878_x_at) / RFU SPINT1 (11716480_a_at) / Fold change /veh SPINT1 (11716480_a_at) / RFU GAP43 (11754022_s_at) / Fold change /veh GAP43 (11754022_s_at) / RFU A4GNT (11735810_at) / Fold change /veh A4GNT (11735810_at) / RFU PRB3 (11715151_x_at) / Fold change /veh PRB3 (11715151_x_at) / RFU TUBB4B (11761932_at) / Fold change /veh TUBB4B (11761932_at) / RFU CAPN14 (11732068_a_at) / Fold change /veh CAPN14 (11732068_a_at) / RFU TMCC2 (11721928_a_at) / Fold change /veh TMCC2 (11721928_a_at) / RFU IRGQ (11745062_a_at) / Fold change /veh IRGQ (11745062_a_at) / RFU FAM174B (11720279_a_at) / Fold change /veh FAM174B (11720279_a_at) / RFU TMPRSS4 (11748680_a_at) / Fold change /veh TMPRSS4 (11748680_a_at) / RFU FAM212B (11763350_a_at) / Fold change /veh FAM212B (11763350_a_at) / RFU PLEKHG5 (11743358_a_at) / Fold change /veh PLEKHG5 (11743358_a_at) / RFU ZSCAN30 (11745921_a_at) / Fold change /veh ZSCAN30 (11745921_a_at) / RFU CMKLR1 (11741424_a_at) / Fold change /veh CMKLR1 (11741424_a_at) / RFU LOC101060620 /// MAPK8IP1 (11723275_at) / Fold change /veh LOC101060620 /// MAPK8IP1 (11723275_at) / RFU SPTSSB (11747773_x_at) / Fold change /veh SPTSSB (11747773_x_at) / RFU PRSS12 (11739890_at) / Fold change /veh PRSS12 (11739890_at) / RFU BIN1 (11741810_x_at) / Fold change /veh BIN1 (11741810_x_at) / RFU WNT11 (11732464_a_at) / Fold change /veh WNT11 (11732464_a_at) / RFU C10orf10 (11716521_a_at) / Fold change /veh C10orf10 (11716521_a_at) / RFU C5orf56 (11738089_at) / Fold change /veh C5orf56 (11738089_at) / RFU CYB561 (11721691_x_at) / Fold change /veh CYB561 (11721691_x_at) / RFU ANKRD19P (11752326_a_at) / Fold change /veh ANKRD19P (11752326_a_at) / RFU OR2T12 /// OR2T33 /// OR2T8 (11738714_s_at) / Fold change /veh OR2T12 /// OR2T33 /// OR2T8 (11738714_s_at) / RFU VCAN (11748164_a_at) / Fold change /veh VCAN (11748164_a_at) / RFU JSRP1 (11732532_at) / Fold change /veh JSRP1 (11732532_at) / RFU KRTAP10-11 (11738290_x_at) / Fold change /veh KRTAP10-11 (11738290_x_at) / RFU MYO3A (11730013_a_at) / Fold change /veh MYO3A (11730013_a_at) / RFU EBF3 (11725865_a_at) / Fold change /veh EBF3 (11725865_a_at) / RFU CAMK2N1 (11719241_x_at) / Fold change /veh CAMK2N1 (11719241_x_at) / RFU C5orf56 (11738088_a_at) / Fold change /veh C5orf56 (11738088_a_at) / RFU OLFML3 (11715873_a_at) / Fold change /veh OLFML3 (11715873_a_at) / RFU LOC100653217 /// NTM (11731650_a_at) / Fold change /veh LOC100653217 /// NTM (11731650_a_at) / RFU MAPK11 (11762145_a_at) / Fold change /veh MAPK11 (11762145_a_at) / RFU FIZ1 (11724087_x_at) / Fold change /veh FIZ1 (11724087_x_at) / RFU OASL (11726364_x_at) / Fold change /veh OASL (11726364_x_at) / RFU SOX15 (11748057_x_at) / Fold change /veh SOX15 (11748057_x_at) / RFU CD79A (11719716_a_at) / Fold change /veh CD79A (11719716_a_at) / RFU HIST1H1D (11736915_at) / Fold change /veh HIST1H1D (11736915_at) / RFU CASKIN2 (11723855_a_at) / Fold change /veh CASKIN2 (11723855_a_at) / RFU LOC730098 (11760151_x_at) / Fold change /veh LOC730098 (11760151_x_at) / RFU OR4N2 (11742367_at) / Fold change /veh OR4N2 (11742367_at) / RFU PRRT2 (11749266_a_at) / Fold change /veh PRRT2 (11749266_a_at) / RFU SNX32 (11753110_a_at) / Fold change /veh SNX32 (11753110_a_at) / RFU CDHR5 (11726645_a_at) / Fold change /veh CDHR5 (11726645_a_at) / RFU RCAN1 (11760418_a_at) / Fold change /veh RCAN1 (11760418_a_at) / RFU FAM167A (11723789_a_at) / Fold change /veh FAM167A (11723789_a_at) / RFU FAM26E (11764081_at) / Fold change /veh FAM26E (11764081_at) / RFU ISYNA1 (11749810_s_at) / Fold change /veh ISYNA1 (11749810_s_at) / RFU ACY1 (11761880_at) / Fold change /veh ACY1 (11761880_at) / RFU 11764098_at / Fold change /veh 11764098_at / RFU SAMD14 (11745864_x_at) / Fold change /veh SAMD14 (11745864_x_at) / RFU NPB (11741838_a_at) / Fold change /veh NPB (11741838_a_at) / RFU TMPRSS6 (11731388_a_at) / Fold change /veh TMPRSS6 (11731388_a_at) / RFU KRTAP10-2 (11738614_at) / Fold change /veh KRTAP10-2 (11738614_at) / RFU ARHGAP8 /// PRR5-ARHGAP8 (11727945_x_at) / Fold change /veh ARHGAP8 /// PRR5-ARHGAP8 (11727945_x_at) / RFU KRTAP5-7 /// NADSYN1 (11734609_at) / Fold change /veh KRTAP5-7 /// NADSYN1 (11734609_at) / RFU RASL12 (11751679_a_at) / Fold change /veh RASL12 (11751679_a_at) / RFU CDKN2B (11736163_a_at) / Fold change /veh CDKN2B (11736163_a_at) / RFU PRF1 (11729649_at) / Fold change /veh PRF1 (11729649_at) / RFU, ZNF638 /// ZNF638-IT1 / Fold change vs veh, ZNF638 /// ZNF638-IT1 / RFU, PANK3 / Fold change vs veh, PANK3 / RFU, SH3YL1 / Fold change vs veh, SH3YL1 / RFU, ZEB2 / Fold change vs veh, ZEB2 / RFU, NRIP1 / Fold change vs veh, NRIP1 / RFU, PTTG1IP / Fold change vs veh, PTTG1IP / RFU, CAPN2 / Fold change vs veh, CAPN2 / RFU, MED14 / Fold change vs veh, MED14 / RFU, SNORA58 / Fold change vs veh, SNORA58 / RFU, C1orf63 / Fold change vs veh, C1orf63 / RFU, LRRFIP1 / Fold change vs veh, LRRFIP1 / RFU, NDUFAF7 / Fold change vs veh, NDUFAF7 / RFU, SLC12A2 / Fold change vs veh, SLC12A2 / RFU, IBTK / Fold change vs veh, IBTK / RFU, ESF1 / Fold change vs veh, ESF1 / Fold change vs veh, TMEM50B / RFU, TAOK1 / Fold change vs veh, TAOK1 / RFU, ACBD3 / Fold change vs veh, ACBD3 / RFU, TMA16 / Fold change vs veh, TMA16 / RFU, RWDD3 / Fold change vs veh, RWDD3 / RFU, BCAT1 / Fold change vs veh, BCAT1 / RFU, EDEM3 / Fold change vs veh, EDEM3 / RFU, TMEM33 / Fold change vs veh, TMEM33 / RFU, WDR75 / Fold change vs veh, WDR75 / RFU, AHCTF1 / Fold change vs veh, AHCTF1 / RFU, TFRC / Fold change vs veh, TFRC / RFU, ZDHHC17 / Fold change vs veh, ZDHHC17 / RFU, NOM1 / Fold change vs veh, NOM1 / RFU, ARL8B / Fold change vs veh, ARL8B / RFU, ZBTB11 / Fold change vs veh, ZBTB11 / RFU, TAMM41 / Fold change vs veh, TAMM41 / RFU, KIAA1704 /// LOC100996395 / Fold change vs veh, KIAA1704 /// LOC100996395 / RFU, ING1 / Fold change vs veh, ING1 / RFU, TRMT61B / Fold change vs veh, TRMT61B / RFU, FUBP3 / Fold change vs veh, FUBP3 / RFU, TP53 / Fold change vs veh, TP53 / RFU, TNKS2 / Fold change vs veh, TNKS2 / RFU, ZFP14 / Fold change vs veh, ZFP14 / RFU, ACTR2 / Fold change vs veh, ACTR2 / RFU, PPP3R1 / Fold change vs veh, PPP3R1 / RFU, PIK3R1 / Fold change vs veh, PIK3R1 / RFU, HNRNPA1 / Fold change vs veh, HNRNPA1 / RFU, RNF170 / Fold change vs veh, RNF170 / RFU, ZNF28 / Fold change vs veh, ZNF28 / RFU, RNGTT / Fold change vs veh, RNGTT / RFU, OGT / Fold change vs veh, OGT / RFU, BRD1 / Fold change vs veh, BRD1 / RFU, MARS / Fold change vs veh, MARS / RFU, ZNF655 / Fold change vs veh, ZNF655 / RFU, FAHD1 / Fold change vs veh, FAHD1 / RFU, BDP1 / Fold change vs veh, BDP1 / RFU, LRRCC1 / Fold change vs veh, LRRCC1 / RFU, ARID1A / Fold change vs veh, ARID1A / RFU, ZNF146 / Fold change vs veh, ZNF146 / RFU, ZNF330 / Fold change vs veh, ZNF330 / RFU, GPN3 / Fold change vs veh, GPN3 / RFU, C9orf123 / Fold change vs veh, C9orf123 / RFU, N4BP2L2 / Fold change vs veh, N4BP2L2 / RFU, ARFIP1 / Fold change vs veh, ARFIP1 / RFU, FAM179B / Fold change vs veh, FAM179B / RFU, BCL10 / Fold change vs veh, BCL10 / RFU, UHRF1BP1L / Fold change vs veh, UHRF1BP1L / RFU, BET1 / Fold change vs veh, BET1 / RFU, CNOT2 / Fold change vs veh, CNOT2 / RFU, ZNF268 / Fold change vs veh, ZNF268 / Fold change vs veh, ZNF507 / RFU, DGCR2 / Fold change vs veh, DGCR2 / RFU, WDSUB1 / Fold change vs veh, WDSUB1 / Fold change vs veh, HSP90B1 /// MIR3652 / RFU, ADSS / Fold change vs veh, ADSS / RFU, GK / Fold change vs veh, GK / RFU, ZNF148 / Fold change vs veh, ZNF148 / RFU, TAF9 / Fold change vs veh, TAF9 / RFU, SLC1A5 / Fold change vs veh, SLC1A5 / RFU, SLMO2 / Fold change vs veh, SLMO2 / RFU, ABCC4 / Fold change vs veh, ABCC4 / RFU, LOC101060439 /// RAP1B / Fold change vs veh, LOC101060439 /// RAP1B / RFU, RFX7 / Fold change vs veh, RFX7 / RFU, GTPBP10 / Fold change vs veh, GTPBP10 / RFU, CNEP1R1 / Fold change vs veh, CNEP1R1 / RFU, BIVM-ERCC5 /// ERCC5 / Fold change vs veh, BIVM-ERCC5 /// ERCC5 / RFU, ILF3 / Fold change vs veh, ILF3 / RFU 11762660_at / Fold change /veh 11762660_at / RFU VCAN (11757783_s_at) / Fold change /veh VCAN (11757783_s_at) / RFU DDX43 (11728927_at) / Fold change /veh DDX43 (11728927_at) / RFU KRT8 (11758188_x_at) / Fold change /veh KRT8 (11758188_x_at) / RFU NKD1 (11759106_at) / Fold change /veh NKD1 (11759106_at) / RFU SRD5A1 (11742802_a_at) / Fold change /veh SRD5A1 (11742802_a_at) / RFU TPSAB1 /// TPSB2 (11721975_s_at) / Fold change /veh TPSAB1 /// TPSB2 (11721975_s_at) / RFU GSTM3 (11746129_a_at) / Fold change /veh GSTM3 (11746129_a_at) / RFU IL23R (11737362_x_at) / Fold change /veh IL23R (11737362_x_at) / RFU TMEM51 (11727254_a_at) / Fold change /veh TMEM51 (11727254_a_at) / RFU PIWIL2 (11732686_x_at) / Fold change /veh PIWIL2 (11732686_x_at) / RFU ORM1 (11744905_x_at) / Fold change /veh ORM1 (11744905_x_at) / RFU CCDC152 (11743942_at) / Fold change /veh CCDC152 (11743942_at) / RFU ECM1 (11717891_a_at) / Fold change /veh ECM1 (11717891_a_at) / RFU IL23R (11748794_a_at) / Fold change /veh IL23R (11748794_a_at) / RFU TNFAIP8L3 (11732012_x_at) / Fold change /veh TNFAIP8L3 (11732012_x_at) / RFU MBOAT4 (11741988_at) / Fold change /veh MBOAT4 (11741988_at) / RFU 11764193_at / Fold change /veh 11764193_at / RFU TMEM53 (11763286_at) / Fold change /veh TMEM53 (11763286_at) / RFU MAGEB2 (11727129_at) / Fold change /veh MAGEB2 (11727129_at) / RFU TMEM200A (11744735_a_at) / Fold change /veh TMEM200A (11744735_a_at) / RFU CCDC152 (11751479_a_at) / Fold change /veh CCDC152 (11751479_a_at) / RFU FAM211A (11726209_a_at) / Fold change /veh FAM211A (11726209_a_at) / RFU RGS16 (11746705_a_at) / Fold change /veh RGS16 (11746705_a_at) / RFU VCAN (11755009_s_at) / Fold change /veh VCAN (11755009_s_at) / RFU RHOB (11743442_s_at) / Fold change /veh RHOB (11743442_s_at) / RFU RGS16 (11720943_a_at) / Fold change /veh RGS16 (11720943_a_at) / RFU RGS16 (11720944_at) / Fold change /veh RGS16 (11720944_at) / RFU, VPS4B / Fold change vs veh, VPS4B / RFU, CREB1 / Fold change vs veh, CREB1 / RFU, DNAJC13 / Fold change vs veh, DNAJC13 / RFU, GNAQ / Fold change vs veh, GNAQ / RFU, CDK5R1 / Fold change vs veh, CDK5R1 / RFU, ZRANB3 / Fold change vs veh, ZRANB3 / RFU, CUL4A / Fold change vs veh, CUL4A / RFU, CCNY / Fold change vs veh, CCNY / RFU, UFL1 / Fold change vs veh, UFL1 / RFU, COG3 / Fold change vs veh, COG3 / RFU, DIAPH2 / Fold change vs veh, DIAPH2 / RFU, SKA2 / Fold change vs veh, SKA2 / RFU, AFF3 / Fold change vs veh, AFF3 / RFU, LMF1 / Fold change vs veh, LMF1 / RFU, IPO11 / Fold change vs veh, IPO11 / RFU, DFFB / Fold change vs veh, DFFB / RFU, FOXP1 / Fold change vs veh, FOXP1 / RFU, CARD8 / Fold change vs veh, CARD8 / RFU, STRN3 / Fold change vs veh, STRN3 / RFU, ADK / Fold change vs veh, ADK / RFU, RASSF2 / Fold change vs veh, RASSF2 / RFU, WIPF1 / Fold change vs veh, WIPF1 / RFU, LARP1B / Fold change vs veh, LARP1B / RFU, RASA1 / Fold change vs veh, RASA1 / RFU, RB1 / Fold change vs veh, RB1 / RFU, PPFIA1 / Fold change vs veh, PPFIA1 / RFU, MAT2A / Fold change vs veh, MAT2A / RFU, CCT5 / Fold change vs veh, CCT5 / RFU, WDR92 / Fold change vs veh, WDR92 / RFU, CUX1 / Fold change vs veh, CUX1 / RFU, TTC7A / Fold change vs veh, TTC7A / RFU, TMEM135 / Fold change vs veh, TMEM135 / RFU, DEPTOR / Fold change vs veh, DEPTOR / RFU, CPM / Fold change vs veh, CPM / RFU, DNAJB6 / Fold change vs veh, DNAJB6 / RFU, CACNA2D3 / Fold change vs veh, CACNA2D3 / RFU, DTX4 / Fold change vs veh, DTX4 / RFU, TFCP2 / Fold change vs veh, TFCP2 / RFU, GMCL1 /// GMCL1P1 / Fold change vs veh, GMCL1 /// GMCL1P1 / RFU, AEBP2 / Fold change vs veh, AEBP2 / RFU, SNHG1 /// SNORD22 /// SNORD25 /// SNORD26 /// SNORD27 /// SNORD28 /// SNORD29 /// SNORD31 / Fold change vs veh, SNHG1 /// SNORD22 /// SNORD25 /// SNORD26 /// SNORD27 /// SNORD28 /// SNORD29 /// SNORD31 / Fold change (Aza/veh), C12orf56 (ProbeSet 11735607_a_at) / Fold change (ACY-1035/veh), C12orf56 (ProbeSet 11735607_a_at) / Fold change (Aza/veh), FGFR1OP (ProbeSet 11751329_s_at) / Fold change (ACY-1035/veh), FGFR1OP (ProbeSet 11751329_s_at) / Fold change (Aza/veh), VPS36 (ProbeSet 11739960_a_at) / Fold change (ACY-1035/veh), VPS36 (ProbeSet 11739960_a_at) / RFU SYPL1 (11715823_x_at) / Fold change /veh SYPL1 (11715823_x_at) / RFU IGFBP7 (11715501_s_at) / Fold change /veh IGFBP7 (11715501_s_at) / RFU REEP3 (11722064_at) / Fold change /veh REEP3 (11722064_at) / RFU IGLL1 (11728026_x_at) / Fold change /veh IGLL1 (11728026_x_at): dose or concentration left out as unconfirmed
Conditions: ProbeSet 11749781_s_at; LIST B

Nc1ccc(-c2cccs2)cc1NC(=O)c1ccc2c(c1)cc(C1CC1)n2CCN1CCOCC1 [ACY-1035]
RFU, BCAT1: 11.38 RFU
